Measurements: patent publication US20190315711A1 (eXIthera Pharmaceuticals, Inc., priority 2016, published 2019)
In brackets after ≈: the same amount, converted by molar mass.

Experiments:
[1] = Plasma protein binding by equilibrium dialysis; format: in vitro ADME; settings: both sexes, pooled plasma, pH 7.4, human plasma protein binding, read-out: PPB
Description: The following procedure was used to determine the plasma protein binding of a test compound in pooled plasma from human (mixed gender) via equilibrium dialysis in a 96-well plate format. The dialysate compartment was loaded with phosphate-buffered saline (pH 7.4) and the sample side was loaded with plasma spiked with the test compound at a concentration of 10 μM. After loading, samples were covered and incubated for 4 hours at 37° C. After incubation, each compartment was sampled, diluted with acetonitrile/buffer and centrifuged. The supernatants were analyzed by HPLC-MS/MS. The analyte peak areas obtained from HPLC-MS/MS analysis of each sample were used to calculate protein binding according to the following equation (Equation 4):
where: AREAp=Peak area of analyte in protein matrix; AREAb=Peak area of analyte in buffer. The amount measured in the plasma compartment included both free and bound drug, while that on the buffer side represented free drug only; the differences were used to calculate the percentage plasma protein bound. Three reference compounds were tested in each assay: acebutolol, quinidine and warfarin.

[2] = Metabolic stability in dog hepatocytes; format: in vitro ADME; settings: pooled cryopreserved hepatocytes; beagle dog hepatocytes, 2 μM compound, 500,000 cells/mL, 37° C.; read-out: Dog Hepatocyte Stability (T½: min)
Description: The following procedure was used to determine the stability of test compounds in beagle dog hepatocytes in a 96-well plate format. The test compounds, including the controls, imipramine and 7-ethoxycoumarin, were dissolved at 10 mM in DMSO, followed by further 5-fold dilution with DMSO to 2 mM. Pooled cryopreserved beagle dog hepatocytes were thawed and transferred into complete medium. Cells were gently centrifuged (700 rpm for 5 min) and the pellet rinsed with KHB (Krebs Henseleit buffer). Cells were resuspended, counted using Trypan blue, and adjusted to 1 million cells/mL in KHB buffer. The 2 mM compound stock solutions were diluted 10-fold with acetonitrile, followed by a further 50-fold dilution with KHB buffer. 200 μL of these compound solutions were transferred to 96-well polypropylene assay plates and an equal volume of the hepatocyte solution was added and mixed to initiate the reaction (final assay concentrations were 2 μM compound and 500,000 cells/mL). Assay plates were incubated at 37° C. in 5% CO2 with gentle agitation. 50 μL aliquots were removed at multiple time points out to 180 minutes and quenched with 6 volumes of cold acetonitrile (containing 250 ng/mL of carbutamide and chrysin as internal standards) to terminate the reaction and precipitate protein. Quenched samples were maintained on ice. The quenched samples were centrifuged at 2000×g (3100 rpm) for 10 minutes at 4° C. 50 μL aliquots of the supernatants were removed and diluted with 100 μL Milli-Q water to reduce the % organic content prior to bioanalysis by LC-MS/MS. Peak areas corresponding to the test compound were recorded. The compound remaining was calculated by comparing the peak area at each time point to time zero. Data were analyzed and results were calculated using Microsoft Excel 2010.

[3] = Aqueous solubility in PBS pH 7.4; format: physicochemical; settings: phosphate buffered saline, aqueous buffer, kinetic from dmso stock, PBS pH 7.4, room temperature
Description: The following procedure was used to determine the aqueous solubility of a test compound in phosphate buffered saline (PBS—NaCl 137 mM, KCl 2.7 mM, Na2HPO4 8.1 mM, KH2PO4 1.5 mM, pH 7.4) in 96-well plate format by HPLC-UV/VIS analysis. The test compound was prepared at 200 μM in PBS from a 10 mM DMSO stock solution. The final DMSO concentration was 2%. The PBS buffer samples were mixed thoroughly followed by incubation at room temperature for 24 h. At the end of the incubation, the PBS buffer samples were centrifuged and supernatants analyzed by HPLC. The aqueous solubility (μM) of the test compound in PBS was determined by comparing the peak area of the principal peak in the calibration standard (200 μM) with the peak area of the corresponding peak in each of the PBS samples. The range of the assay was approximately 0.5 μM to 200 μM. The reference compounds used in each assay were metoprolol, rifampicin, ketoconazole, phenytoin, haloperidol, simvastatin, diethylstilbestrol, and tamoxifen ranking from fully soluble (200 μM) to poorly soluble (<1 μM).

Factor Xa = target: T1, Factor Xa (Homo sapiens, UniProt P00742); test: Dose response assay for protease inhibitors: Factor Xa; format: biochemical; settings: ratio versus Factor XIa
T1 construct: Factor Xa; 0.2 μM in 50% glycerol (9.2 μg/mL)
T1 sequence (P00742 235-488 limits assumed): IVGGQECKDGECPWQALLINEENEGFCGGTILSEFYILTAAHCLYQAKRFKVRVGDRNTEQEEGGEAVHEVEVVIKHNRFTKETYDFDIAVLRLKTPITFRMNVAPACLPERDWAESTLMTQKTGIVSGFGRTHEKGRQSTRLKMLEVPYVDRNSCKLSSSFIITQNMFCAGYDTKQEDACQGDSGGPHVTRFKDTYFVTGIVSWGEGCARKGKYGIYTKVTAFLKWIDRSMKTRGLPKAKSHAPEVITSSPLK
T1 sequence (P00742 41-179 partner limits assumed): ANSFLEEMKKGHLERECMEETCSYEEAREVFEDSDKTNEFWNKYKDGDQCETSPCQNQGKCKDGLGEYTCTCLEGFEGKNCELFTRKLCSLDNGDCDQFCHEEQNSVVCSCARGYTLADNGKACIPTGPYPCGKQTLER

Structure (SMILES)	fraction unbound at 4 h, 10 μM [1]	half-life at 2 μM [2]	solubility at 24 h [3]	FXa/FXIa (selectivity ratio) (Factor Xa)
CC[C@@H](NC(=O)N1C(=O)[C@H](Cc2cc(C)nc(N)c2)[C@H]1C(=O)N(C)c1ccccc1)C1CCCCC1 [Compound 91]	0.05 to 0.09	1.02 to 2 h	> 100 µM	I (“I” indicates >500)
CC[C@@H](NC(=O)N1C(=O)[C@H](Cc2ccnc(NC)c2)[C@H]1C(=O)N(C)c1ncccn1)C1CCCCC1 [Compound 80]	< 0.05	< 1 h	> 100 µM	I (“I” indicates >500)
CC[C@@H](NC(=O)N1C(=O)[C@H](Cc2ccnc(N)c2)[C@H]1C(=O)N(C)c1ncncn1)C1CCCCC1 [Compound 81]	< 0.05	< 1 h	> 100 µM	I (“I” indicates >500)
CN(C(=O)[C@@H]1[C@@H](Cc2ccnc(N)c2)C(=O)N1C(=O)N[C@@H](C1CCCCC1)C1CC1)c1ccccc1 [Compound 36]	< 0.05	< 1 h	> 100 µM	I (“I” indicates >500)
C[C@@H](NC(=O)N1C(=O)[C@H](Cc2ccnc(N)c2)[C@H]1C(=O)N(C)c1ccccc1)C1CCCCC1 [Compound 49]	0.05 to 0.09	< 1 h	> 100 µM	I (“I” indicates >500)
CN(C(=O)[C@@H]1[C@@H](Cc2ccnc(N)c2)C(=O)N1C(=O)N[C@@H](C1CC1)C(F)(F)F)c1ncccn1 [Compound 78]	0.1 to 0.5	< 1 h	> 100 µM	I (“I” indicates >500)
Cc1ccccc1N(C)C(=O)[C@@H]1[C@@H](Cc2ccnc(N)c2)C(=O)N1C(=O)N[C@@H](C1CCCCC1)C(F)(F)F [Compound 15]	< 0.05		10 to 100 µM (≈ 5.32 to 53.2 µg/mL)	H (“H” indicates 101-1000)
CN(C(=O)[C@@H]1[C@@H](Cc2ccnc(N)c2)C(=O)N1C(=O)N[C@@H](C1CCCCC1)C(F)(F)F)c1cncnc1 [Compound 19]	0.05 to 0.09		> 100 µM	H (“H” indicates 101-1000)
CN(C(=O)[C@@H]1[C@@H](Cc2ccnc(N)c2)C(=O)N1C(=O)N[C@@H](C1CCCCC1)C(F)(F)F)c1cccc(F)c1 [Compound 22]	< 0.05		10 to 100 µM (≈ 5.36 to 53.6 µg/mL)	H (“H” indicates 101-1000)
CN(C(=O)[C@@H]1[C@@H](Cc2ccnc(N)c2)C(=O)N1C(=O)N[C@@H](C1CCCCC1)C(F)(F)F)c1cccnc1 [Compound 17]	0.1 to 0.5		> 100 µM	H (“H” indicates 101-1000)
CC[C@@H](NC(=O)N1C(=O)[C@H](Cc2ccnc(N)c2)[C@H]1C(=O)N(CC)c1ncccn1)C1CCCCC1 [Compound 39]		< 1 h		I (“I” indicates >500)
CCN(C(=O)[C@@H]1[C@@H](Cc2ccnc(N)c2)C(=O)N1C(=O)N[C@@H](C1CCCCC1)C(F)(F)F)c1ccccc1 [Compound 24]	< 0.05		10 to 100 µM (≈ 5.32 to 53.2 µg/mL)	H (“H” indicates 101-1000)

Second part, the compound after the results:

fraction unbound at 4 h, 10 μM [1]	half-life at 2 μM [2]	solubility at 24 h [3]	FXa/FXIa (selectivity ratio) (Factor Xa)	Structure (SMILES)
< 0.05	2.02 to 4 h	> 100 µM	I (“I” indicates >500)	CC[C@@H](NC(=O)N1C(=O)[C@H](Cc2ccnc(N)c2)[C@H]1C(=O)N(C)c1ccncc1)c1cccc(C)c1 [Compound 87]
< 0.05	< 1 h	10 to 100 µM (≈ 6.07 to 60.7 µg/mL)	H (“H” indicates 101-1000)	CC[C@@H](NC(=O)N1C(=O)[C@H](Cc2ccnc(NC(=O)OC(C)(C)C)c2)[C@H]1C(=O)N(C)c1ccncc1)c1cccc(Cl)c1 [Compound 127]
< 0.05	1.02 to 2 h	> 100 µM	I (“I” indicates >500)	CCC[C@@H](NC(=O)N1C(=O)[C@H](Cc2ccnc(N)c2)[C@H]1C(=O)N(C)c1ccccc1)C1CCCCC1 [Compound 50]
< 0.05	2.02 to 4 h	10 to 100 µM (≈ 5.2 to 52 µg/mL)	I (“I” indicates >500)	CC[C@@H](NC(=O)N1C(=O)[C@H](Cc2cc(C)nc(N)c2)[C@H]1C(=O)N(C)c1ccccc1)c1cccc(Cl)c1 [Compound 120]
0.05 to 0.09	< 1 h	> 100 µM	I (“I” indicates >500)	CN(C(=O)[C@@H]1[C@@H](Cc2ccnc(N)c2)C(=O)N1C(=O)N[C@@H](C1CCCCC1)C1CC1)c1ccncc1 [Compound 52]
0.1 to 0.5		> 100 µM	H (“H” indicates 101-1000)	CC[C@@H](NC(=O)N1C(=O)[C@H](Cc2ccnc(N)c2)[C@H]1C(=O)N(C)c1ccccc1)C1CC1 [Compound 46]
0.1 to 0.5	2.02 to 4 h	> 100 µM	I (“I” indicates >500)	CC[C@@H](NC(=O)N1C(=O)[C@H](Cc2ccnc(N)c2)[C@H]1C(=O)N(C)c1ccncc1)c1ccccc1 [Compound 42]
0.1 to 0.5	2.02 to 4 h	> 100 µM	I (“I” indicates >500)	CC[C@@H](NC(=O)N1C(=O)[C@H](Cc2ccnc(N)c2)[C@H]1C(=O)N(C)c1ccncc1)C1CCCCC1 [Compound 25]
0.1 to 0.5	1.02 to 2 h	> 100 µM	I (“I” indicates >500)	CC[C@@H](NC(=O)N1C(=O)[C@H](Cc2ccnc(N)c2)[C@H]1C(=O)N(C)c1ncccn1)c1ccccc1 [Compound 84]
< 0.05	2.02 to 4 h	> 100 µM	I (“I” indicates >500)	CC[C@@H](NC(=O)N1C(=O)[C@H](Cc2ccnc(N)c2)[C@H]1C(=O)N(C)c1ccncc1)c1cccc(Cl)c1 [Compound 90]
< 0.5	2.02 to 4 h	> 100 µM	H (“H” indicates 101-1000)	CC[C@@H](NC(=O)N1C(=O)[C@H](Cc2ccnc(N)c2)[C@H]1C(=O)N(C)c1ncccn1)c1cccnc1 [Compound 61]
0.1 to 0.5	> 4 h	> 100 µM	I (“I” indicates >500)	CC[C@@H](NC(=O)N1C(=O)[C@H](Cc2ccnc(N)c2)[C@H]1C(=O)N(C)c1ccncc1)c1cccc(C#N)c1 [Compound 99]
< 0.5	2.02 to 4 h	> 100 µM	H (“H” indicates 101-1000)	CN(C(=O)[C@@H]1[C@@H](Cc2ccnc(N)c2)C(=O)N1C(=O)N[C@@H](C1CC1)C(F)(F)F)c1ccncc1 [Compound 77]
0.1 to 0.5		> 100 µM	I (“I” indicates >500)	CN(C(=O)[C@@H]1[C@@H](Cc2ccnc(N)c2)C(=O)N1C(=O)N[C@@H](C1CCCCC1)C(F)(F)F)c1ccncc1 [Compound 18]
